Assays:
Assay type in all cases: in vivo
Sesbania cannabina [1] = test: Antagonistic effect with Artemisia annua seed extract on germination and seedling growth; settings: A. annua seed extract (0.65 g seeds/100 ml) alone or mixed 1:1 with 0.01 μm compound, control = 100%
Method: (§1) On the other hand, it is evident from Exp. 1-4 that phyllocladane diterpenenoids have produced germination and growth promoting activities on various plant species. To find out the combined effect of A. annua extract and phyllocladane diterpenoides on the germination and seedling growth of different plant species, 1:1 ratio of these compounds and A.annua extract were tested in the present experiment. For this, Hibiscus sabdariffa and Sesbania cannabina seeds were germinated in A.annua seed extract and solutions prepared by mixing this extract with 0.01 μm calliterpenone and calliterpenone mono-acetate respectively (Table 7). For the preparation of A.annua extract, 1.3 g seeds were soaked in 100 ml of distilled water for 24 hrs for testing on H. sabdariffa. Since, at this concentration, seeds of this species have shown 69% mortality which may be taken as good indicator. This effect was also recorded in S.cannabina. Since, in this case, seeds were almost half in weight as compared to the seeds of H. sabdariffa, accordingly, 0.65 g A. annua seeds were soaked in 100 ml of distilled water for 24 hrs to produce identical constraints in S. cannabina. For control, seeds were germinated in distilled water and all the observations were compared with it. […] Therefore, calliterpenone and its derivatives can be used to nullify the effects of other growth retardants/allelochemicals in the fields for their reclamation.

Hibiscus sabdariffa [2] = test: as above; settings: A. annua seed extract (1.3 g seeds/100 ml) alone or mixed 1:1 with 0.01 μm compound, control = 100%
Method: as §1

Triticum aestivum = test: Seed germination and seedling shoot/root growth test in petridishes; settings: control = 100%
Method: (§2) As noted above the activity of phyllocladane diterpenoids used in the practice of this invention was observed when these compounds were tested for their effects on seed germination, root and shoot growth of certain plant species and their antagonistic effect on plant growth retardants by the method described by Bagchi G. D. et al Phytochemistry, 45(6)1131-1133, 1997.
(§3) Plant growth promoting activity of calliterpenone, calliterpenone monoacetate, and calliterpenone di-acetate was examined at 0.1, 0.01 and 0.001 μM concentrations. The tests were conducted against seeds of two monocotyledonous (Hordeum vulgare and Triticum aestivum) and two dicotyledonous plants (Vigna radiata and Trigonella foenum-graecum). Control seeds were germinated in distilled water and all the observations were compared with […]. The root and shoot growth of all the plant species were affected by the phyllocladane diterpenoids, although the extent of effect varied considerably in the plant species with the chemicals and their concentrations. […] Details of the procedure adopted and results obtained are discussed in the various examples.
(§4) 100 ml stalk solutions of 0.1 μM concentration were prepared by dissolving required amounts of various test compounds (depending upon their molecular weights) in minimum amount of ethanol or acetone and adding distilled water. From this stalk solution, 0.01 μM and 0.001 μM concentrations were prepared. Calliterpenone and calliterpenone di acetate was dissolved in 2.0 ml absolute ethanol (Merc), while; calliterpenone monoacetate, isopropylideno calliterpenone and trihydroxy calliterpenone were dissolved in 2.0 ml spectral grade acetone (Ranbaxy). The respective control test solutions of distilled water of each concentration also contained equal amount of absolute ethanol or acetone. For an assay, 10 seeds were placed on Whatman filter paper (moistened with 5.0 ml of test solution in a 9.0 cm diameter petridish (in triplicate). The pteridishes were incubated for 9 days in a germinator, maintained at 25.0±1.0° C. with 90% humidity and 4 hr light/day. At the end of incubation, observations were recorded on the seedlings in terms of germination, shoot and root growth. The data on the length of shoot and root of seedlings and number of seeds germinated in different concentrations of compounds were compared with the control, which was taken as 100%. The data thus obtained were presented in Table-1.
(§5) Root growth of seedlings was measured in the similar way as shoot growth from the experiment as described in Example 1.
(§6) Effect of test compounds on germination was observed from the same experiment as described in Example 1.

[3] = system: Trigonella foenum-graecum; test: as above; settings: for Percent (%) germination of seeds in relation to control on 9th day after sowing / Percent (%) root growth of seedlings in relation to control on 9th day after sowing / Percent (%) shoot growth of seedlings in relation to control on 9th day after sowing: Trigonella foenum graecum, control = 100%
Method: as §2, §3, §4, §5, §6

Hordeum vulgare = test: as above; settings: control = 100%
Method: as §2, §3, §4, §5, §6

Vigna radiata = test: as above; settings: Vigna radiata, control = 100%
Method: as §2, §3, §4, §5, §6

Sesbania cannabina [4] = test: Seed germination and seedling growth, comparison with GA3 (Example 4)
Method: as §4
(§7) Effect of calliterpenone and its derivatives on seed germination and seedling growth in Hibiscus sabdariffa and Sesbania cannabina were measured in the similar way as these were measured in Example-1.

Hibiscus sabdariffa [5] = test: as above
Method: as §4, §7

`CC1(C)C(=O)CC[C@@]2(C)[C@H]1CC[C@@]13C[C@H](CC[C@@H]12)[C@@](O)(CO)C3` [Calliterpenone, 16α, 17 dihydroxy phyllocladan-3 one] was tested, and the “Percent (%) germination in relation to control on the 9th day after sowing” value (Sesbania cannabina [1]) was “no improvement in seed germination”, the “Percent (%) seedling growth, Root, in relation to control on the 9th day after sowing” value (Sesbania cannabina [1]) was 225% and the “Percent (%) seedling growth, Stem, in relation to control on the 9th day after sowing” value (Sesbania cannabina [1]) was 144%. For the same molecule, the “Percent (%) germination in relation to control on the 9th day after sowing” value (Hibiscus sabdariffa [2]) was “nullified the germination retarding effect”, the “Percent (%) seedling growth, Root, in relation to control on the 9th day after sowing” value (Hibiscus sabdariffa [2]) was 150% and the “Percent (%) seedling growth, Stem, in relation to control on the 9th day after sowing” value (Hibiscus sabdariffa [2]) was 130%. For the same molecule, the “Percent (%) germination of seeds in relation to control on 9th day after sowing” value (“Percent (%) germination of seeds” below) (Triticum aestivum; 0.001 μM) was 100%, the “Percent (%) root growth of seedlings in relation to control on 9th day after sowing” value (from here on “Percent (%) root growth of seedlings”) (Triticum aestivum; 0.001 μM) was 136% and the “Percent (%) shoot growth of seedlings in relation to control on 9th day after sowing” value (shortened to “Percent (%) shoot growth of seedlings”) (Triticum aestivum; 0.001 μM) was 105%. The “Percent (%) germination of seeds” value (Triticum aestivum; 0.01 μM) was 100%, the “Percent (%) root growth of seedlings” value (Triticum aestivum; 0.01 μM) was 80% and the “Percent (%) shoot growth of seedlings” value (Triticum aestivum; 0.01 μM) was 100%. The “Percent (%) germination of seeds” value (Triticum aestivum; 0.1 μM) was 100%, the “Percent (%) root growth of seedlings” value (Triticum aestivum; 0.1 μM) was 80% and the “Percent (%) shoot growth of seedlings” value (Triticum aestivum; 0.1 μM) was 95%. The “Percent (%) germination of seeds” value ([3]; 0.001 μM) was 113%, the “Percent (%) root growth of seedlings” value ([3]; 0.001 μM) was 141% and the “Percent (%) shoot growth of seedlings” value ([3]; 0.001 μM) was 121%. For the same molecule, the “Percent (%) germination of seeds” value ([3]; 0.01 μM) was 125%, the “Percent (%) root growth of seedlings” value ([3]; 0.01 μM) was 164% and the “Percent (%) shoot growth of seedlings” value ([3]; 0.01 μM) was 130%. For the same molecule, the “Percent (%) germination of seeds” value ([3]; 0.1 μM) was 113%, the “Percent (%) root growth of seedlings” value ([3]; 0.1 μM) was 150% and the “Percent (%) shoot growth of seedlings” value ([3]; 0.1 μM) was 121%. For the same molecule, the “Seed germination as compared to 100% in control” value ([3]; Trigonella foenum-graceum, concentration not specified) was 113%, the “Percent (%) germination of seeds” value (Hordeum vulgare; 0.001 μM) was 100% and the “Percent (%) root growth of seedlings” value (Hordeum vulgare; 0.001 μM) was 116%. For the same molecule, the “Percent (%) shoot growth of seedlings” value (Hordeum vulgare; 0.001 μM) was 118%, the “Percent (%) germination of seeds” value (Hordeum vulgare; 0.01 μM) was 100% and the “Percent (%) root growth of seedlings” value (Hordeum vulgare; 0.01 μM) was 116%. For the same molecule, the “Percent (%) shoot growth of seedlings” value (Hordeum vulgare; 0.01 μM) was 103%, the “Percent (%) germination of seeds” value (Hordeum vulgare; 0.1 μM) was 100% and the “Percent (%) root growth of seedlings” value (Hordeum vulgare; 0.1 μM) was 82%. For the same molecule, the “Percent (%) shoot growth of seedlings” value (Hordeum vulgare; 0.1 μM) was 102%, the “Percent (%) germination of seeds” value (Vigna radiata; 0.001 μM) was 250% and the “Percent (%) root growth of seedlings” value (Vigna radiata; 0.001 μM) was 87%. The “Percent (%) shoot growth of seedlings” value (Vigna radiata; 0.001 μM) was 121%, the “Percent (%) germination of seeds” value (Vigna radiata; 0.01 μM) was 150% and the “Percent (%) root growth of seedlings” value (Vigna radiata; 0.01 μM) was 138%. The “Percent (%) shoot growth of seedlings” value (Vigna radiata; 0.01 μM) was 134%, the “Percent (%) germination of seeds” value (Vigna radiata; 0.1 μM) was 150% and the “Percent (%) root growth of seedlings” value (Vigna radiata; 0.1 μM) was 76%. For the same molecule, the “Percent (%) shoot growth of seedlings” value (Vigna radiata; 0.1 μM) was 128%, the “Germination as compared to respective control” value (Sesbania cannabina [4]; 0.001 μM) was 150% and the “Germination compared with GA3” value (Sesbania cannabina [4]; 0.001 μM) was 150%. For the same molecule, the “Root growth as compared to respective control” value (Sesbania cannabina [4]; 0.001 μM) was 119%, the “Seed Ger.” value (Sesbania cannabina [4]; 0.001 μM) was 3 and the “Shoot growth as compared to GA3 (100%)” value (Sesbania cannabina [4]; 0.001 μM) was 104%. For the same molecule, the “Shoot growth as compared to respective control” value (Sesbania cannabina [4]; 0.001 μM) was 120%, the “Root Growth (mm) 3rd Day” value (Sesbania cannabina [4]; 0.001 μM) was 30.0 mm and the “Shoot growth 3rd Day” value (Sesbania cannabina [4]; 0.001 μM) was 17.0. The “Root Growth (mm) 6th Day” value (Sesbania cannabina [4]; 0.001 μM) was 33.6 mm, the “Shoot growth 6th Day” value (Sesbania cannabina [4]; 0.001 μM) was 86.2 and the “Root Growth (mm) 9th Day” value (Sesbania cannabina [4]; 0.001 μM, 9th day) was 43.4 mm. The “Root growth as compared to GA3 taken as 100%” value (Sesbania cannabina [4]; 0.001 μM, 9th day) was 109%, the “Shoot growth 9th Day” value (Sesbania cannabina [4]; 0.001 μM, 9th day) was 108.2 and the “Seed Ger.” value (Sesbania cannabina [4]; 0.01 μM) was 3. For the same molecule, the “Root Growth (mm) 3rd Day” value (Sesbania cannabina [4]; 0.01 μM) was 14.5 mm, the “Shoot growth 3rd Day” value (Sesbania cannabina [4]; 0.01 μM) was 14.2 and the “Root Growth (mm) 6th Day” value (Sesbania cannabina [4]; 0.01 μM) was 21.0 mm. For the same molecule, the “Shoot growth 6th Day” value (Sesbania cannabina [4]; 0.01 μM) was 48.8, the “Root Growth (mm) 9th Day” value (Sesbania cannabina [4]; 0.01 μM, 9th day) was 34.8 mm and the “Shoot growth 9th Day” value (Sesbania cannabina [4]; 0.01 μM, 9th day) was 67.3. The “Seed Ger.” value (Sesbania cannabina [4]; 0.1 μM) was 4, the “Root Growth (mm) 3rd Day” value (Sesbania cannabina [4]; 0.1 μM) was 7.3 mm and the “Shoot growth 3rd Day” value (Sesbania cannabina [4]; 0.1 μM) was 10.3. For the same molecule, the “Root Growth (mm) 6th Day” value (Sesbania cannabina [4]; 0.1 μM) was 16.0 mm, the “Shoot growth 6th Day” value (Sesbania cannabina [4]; 0.1 μM) was 39.3 and the “Root Growth (mm) 9th Day” value (Sesbania cannabina [4]; 0.1 μM, 9th day) was 24.8 mm. The “Shoot growth 9th Day” value (Sesbania cannabina [4]; 0.1 μM, 9th day) was 61.5, the “Germination as compared to respective control” value (Hibiscus sabdariffa [5]; 0.001 μM) was 133% and the “Germination compared with GA3” value (Hibiscus sabdariffa [5]; 0.001 μM) was 133%. The “Root growth as compared to respective control” value (Hibiscus sabdariffa [5]; 0.001 μM) was 157%, the “Seed Ger.” value (Hibiscus sabdariffa [5]; 0.001 μM) was 4 and the “Shoot growth as compared to GA3 (100%)” value (Hibiscus sabdariffa [5]; 0.001 μM) was 110%. For the same molecule, the “Shoot growth as compared to respective control” value (Hibiscus sabdariffa [5]; 0.001 μM) was 182%, the “Root Growth (mm) 3rd Day” value (Hibiscus sabdariffa [5]; 0.001 μM) was 12.6 mm and the “Shoot growth 3rd Day” value (Hibiscus sabdariffa [5]; 0.001 μM) was 27.1. The “Root Growth (mm) 6th Day” value (Hibiscus sabdariffa [5]; 0.001 μM) was 28.6 mm, the “Shoot growth 6th Day” value (Hibiscus sabdariffa [5]; 0.001 μM) was 61.0 and the “Root Growth (mm) 9th Day” value (Hibiscus sabdariffa [5]; 0.001 μM, 9th day) was 33.4 mm. For the same molecule, the “Root growth as compared to GA3 taken as 100%” value (Hibiscus sabdariffa [5]; 0.001 μM, 9th day) was 134%, the “Shoot growth 9th Day” value (Hibiscus sabdariffa [5]; 0.001 μM, 9th day) was 94.6 and the “Seed Ger.” value (Hibiscus sabdariffa [5]; 0.01 μM) was 2. For the same molecule, the “Root Growth (mm) 3rd Day” value (Hibiscus sabdariffa [5]; 0.01 μM) was 17.0 mm, the “Shoot growth 3rd Day” value (Hibiscus sabdariffa [5]; 0.01 μM) was 39.8 and the “Root Growth (mm) 6th Day” value (Hibiscus sabdariffa [5]; 0.01 μM) was 19.2 mm. For the same molecule, the “Shoot growth 6th Day” value (Hibiscus sabdariffa [5]; 0.01 μM) was 78.0, the “Root Growth (mm) 9th Day” value (Hibiscus sabdariffa [5]; 0.01 μM, 9th day) was 25.8 mm and the “Shoot growth 9th Day” value (Hibiscus sabdariffa [5]; 0.01 μM, 9th day) was 85.0. For the same molecule, the “Seed Ger.” value (Hibiscus sabdariffa [5]; 0.1 μM) was 2, the “Root Growth (mm) 3rd Day” value (Hibiscus sabdariffa [5]; 0.1 μM) was 14.0 mm and the “Shoot growth 3rd Day” value (Hibiscus sabdariffa [5]; 0.1 μM) was 13.6. The “Root Growth (mm) 6th Day” value (Hibiscus sabdariffa [5]; 0.1 μM) was 21.5 mm, the “Shoot growth 6th Day” value (Hibiscus sabdariffa [5]; 0.1 μM) was 52.5 and the “Root Growth (mm) 9th Day” value (Hibiscus sabdariffa [5]; 0.1 μM, 9th day) was 23.0 mm. For the same molecule, the “Shoot growth 9th Day” value (Hibiscus sabdariffa [5]; 0.1 μM, 9th day) was 72.5.
